Results from ChEMBL document CHEMBL4184190, “Podophyllotoxin derivatives as an excellent anticancer aspirant for future chemotherapy: A key current imminent needs” (Bioorg Med Chem, 2018).
pIC50: −log10 of the molar value.

Assays:
Format in all cases: functional, cell-based
HeLa [1] = experiment: Cytotoxicity against human HeLa cells after 48 hrs by MTT assay
DU-145 = experiment: Cytotoxicity against human DU145 cells after 48 hrs by MTT assay; conditions: DU-145, 48 h
A549 = experiment: Cytotoxicity against human A549 cells after 48 hrs by MTT assay; conditions: A549, 48 h
MCF7 = experiment: Cytotoxicity against human MCF7 cells after 48 hrs by MTT assay; conditions: MCF7, 48 h
K562 = experiment: Cytotoxicity against human K562 cells after 48 hrs by MTT assay; conditions: K562, 48 h
U-251 = experiment: Cytotoxicity against human U251 cells after 48 hrs by MTT assay; conditions: U-251, 48 h
BGC-823 = experiment: Cytotoxicity against human BGC823 cells after 48 hrs by MTT assay; conditions: BGC-823, 48 h
HeLa [2] = experiment: Cytotoxicity against human HeLa cells by MTT assay

SMILES	pIC50 (HeLa [1])	pIC50 (DU-145)	pIC50 (A549)	pIC50 (MCF7)	pIC50 (K562)	pIC50 (U-251)	pIC50 (BGC-823)	pIC50 (HeLa [2])
COc1ccc2nc([C@@H]3c4cc5c(cc4[C@@H](c4cc(OC)c(OC)c(OC)c4)[C@H]4C(=O)OC[C@H]34)OCO5)oc2c1	5.28 to 5.92	5.28 to 5.92	5.28 to 5.92	5.28 to 5.92	–	–	–	–
COc1cc([C@@H]2c3cc4c(cc3[C@@H](Nc3cccc(CN5CCCCC5)c3)[C@H]3COC(=O)[C@H]23)OCO4)cc(OC)c1OC	–	–	4.84	–	5.96	6.40	–	–
COc1cc([C@@H]2c3cc4c(cc3[C@@H](Nc3ncccc3F)[C@H]3COC(=O)[C@H]23)OCO4)cc(OC)c1O	7.22	–	–	5.85	–	–	6.02	–
COc1cc([C@@H]2c3cc4c(cc3[C@@H](NC(=O)C(=O)c3c[nH]c5ccc(C(=O)N6CCCCC6)cc35)[C@H]3COC(=O)[C@H]23)OCO4)cc(OC)c1OC	–	–	–	–	–	–	–	5.25
COc1cc([C@@H]2c3cc4c(cc3[C@@H](NC(=O)C(=O)c3c[nH]c5ccc(C(=O)NC(C)C)cc35)[C@H]3COC(=O)[C@H]23)OCO4)cc(OC)c1OC	–	–	–	–	–	–	–	5.41
CCN(CC)C(=O)c1ccc2[nH]cc(C(=O)C(=O)N[C@@H]3c4cc5c(cc4[C@@H](c4cc(OC)c(OC)c(OC)c4)[C@H]4C(=O)OC[C@@H]43)OCO5)c2c1	–	–	–	–	–	–	–	5.28
COc1cc([C@@H]2c3cc4c(cc3[C@@H](c3nc5ccccc5o3)[C@H]3COC(=O)[C@H]23)OCO4)cc(OC)c1OC	5.28 to 5.92	5.28 to 5.92	5.28 to 5.92	5.28 to 5.92	–	–	–	–
COc1cc([C@@H]2c3cc4c(cc3[C@@H](Nc3ncccc3F)[C@H]3COC(=O)[C@H]23)OCO4)cc(OC)c1OC	6.70	–	–	5.35	–	–	5.66	–
COc1cc([C@@H]2c3cc4c(cc3[C@@H](c3nc5ccc(Cl)cc5o3)[C@H]3COC(=O)[C@H]23)OCO4)cc(OC)c1OC	5.28 to 5.92	5.28 to 5.92	5.28 to 5.92	5.28 to 5.92	–	–	–	–
COc1cc([C@@H]2c3cc4c(cc3[C@@H](c3nc5ccc(OC)c(OC)c5o3)[C@H]3COC(=O)[C@H]23)OCO4)cc(OC)c1OC	5.28 to 5.92	5.28 to 5.92	5.74	5.70	–	–	–	–
COc1cc([C@@H]2c3cc4c(cc3[C@@H](O[C@@H]3O[C@@H]5CO[C@@H](C)O[C@H]5[C@H](O)[C@H]3O)[C@H]3COC(=O)[C@H]23)OCO4)cc(OC)c1O [ETOPOSIDE]	5.24 to 5.69	5.24 to 5.69	5.24 to 5.69	5.24 to 5.69	–	–	–	–
